Data reported in PubChem BioAssay (NCI).
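These data come from cells grown in 96-well plates and exposed to compound for 48 hours at five concentrations. GI50 marks 50% less growth. TGI is the concentration that stops growth completely.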

Key:
Assay in all cases: DTP human tumour cell line panel, 48 h
MALME-3M melanoma = test system: MALME-3M melanoma
U251 CNS = test system: U251 CNS
MCF7 breast = test system: MCF7 breast
SNB-75 CNS = test system: SNB-75 CNS
EKVX NSCLC = test system: EKVX NSCLC
SK-MEL-2 melanoma = test system: SK-MEL-2 melanoma
NCI-H460 lung = test system: NCI-H460 lung
UO-31 renal = test system: UO-31 renal
PC-3 prostate = test system: PC-3 prostate
SF-268 CNS = test system: SF-268 CNS
IGROV1 ovarian = test system: IGROV1 ovarian
SK-MEL-5 melanoma = test system: SK-MEL-5 melanoma
OVCAR-5 ovarian = test system: OVCAR-5 ovarian
NCI-H522 lung = test system: NCI-H522 lung
HOP-62 NSCLC = test system: HOP-62 NSCLC
A549 NSCLC = test system: A549 NSCLC
TK-10 renal = test system: TK-10 renal
HCC-2998 colon = test system: HCC-2998 colon
RXF 393 renal = test system: RXF 393 renal
UACC-257 melanoma = test system: UACC-257 melanoma
HL-60(TB) leukemia = test system: HL-60(TB) leukemia
T-47D breast = test system: T-47D breast
HS 578T breast = test system: HS 578T breast
SF-539 CNS = test system: SF-539 CNS
SF-295 CNS = test system: SF-295 CNS
NCI/ADR-RES ovarian = test system: NCI/ADR-RES ovarian
OVCAR-8 ovarian = test system: OVCAR-8 ovarian

## COc1cc(C2=NNC(c3ccc(N(C)C)cc3)C2)cc(OC)c1OC (centres undefined)
MALME-3M melanoma
  GI50: 7.85 µM
  TGI: > 100 µM
U251 CNS
  GI50: 0.672 µM
  TGI: > 100 µM
MCF7 breast
  GI50: 0.433 µM
  TGI: > 100 µM
SNB-75 CNS
  GI50: 1.02 µM
  TGI: > 100 µM
EKVX NSCLC
  GI50: 2.02 µM
  TGI: 6.02 µM
SK-MEL-2 melanoma
  GI50: 3.18 µM
  TGI: 26.2 µM
NCI-H460 lung
  GI50: 1.14 µM
  TGI: 6.83 µM
UO-31 renal
  GI50: 4.75 µM
  TGI: 50.6 µM
PC-3 prostate
  GI50: 0.781 µM
  TGI: > 100 µM
SF-268 CNS
  GI50: 2.09 µM
  TGI: > 100 µM
IGROV1 ovarian
  GI50: 0.546 µM
  TGI: 3.06 µM
SK-MEL-5 melanoma
  GI50: 2.09 µM
  TGI: 7.15 µM
OVCAR-5 ovarian
  GI50: 4.73 µM
  TGI: > 100 µM
NCI-H522 lung
  GI50: 2 µM
  TGI: 5.74 µM
HOP-62 NSCLC
  GI50: 1.13 µM
  TGI: > 100 µM
A549 NSCLC
  GI50: 3.94 µM
  TGI: > 100 µM
TK-10 renal
  GI50: 10.1 µM
  TGI: > 100 µM
HCC-2998 colon
  GI50: 1.4 µM
  TGI: 4.6 µM
RXF 393 renal
  GI50: 1.2 µM
  TGI: 4.83 µM
UACC-257 melanoma
  GI50: 8.61 µM
  TGI: 47.4 µM
HL-60(TB) leukemia
  GI50: 1.62 µM
  TGI: 4.96 µM
T-47D breast
  GI50: 19.8 µM
  TGI: > 100 µM
HS 578T breast
  GI50: 2.24 µM
  TGI: 5.96 µM
SF-539 CNS
  GI50: 0.56 µM
  TGI: 2.89 µM
SF-295 CNS
  GI50: 0.249 µM
  TGI: 0.799 µM
NCI/ADR-RES ovarian
  GI50: 2.2 µM
  TGI: > 100 µM
OVCAR-8 ovarian
  GI50: 4.13 µM
  TGI: > 100 µM
